Tests used:
[1] = test system: TrRx in human ovarian A2780 cancer cells; conditions: 10 μM; cited from earlier work
MAPKAPK3 = experiment: Protein kinase expression in Caki-1 whole cell lysates (Western blot), MAPKAPK3; assay type: cell-based, human; conditions: Caki-1, by 12 hours post-treatment
Description: The Caki-1 cells were then lysed and a Western blot analysis was performed with anti-MAPKAPK-3 antibody. Blots were probed with anti-β-Actin antibody as a control for protein loading.
Cell lysis and immunoblotting: Caki-1 cells were seeded into 10-cm dishes at a density of 2.2×10^6 and incubated for 24 hours. […] After microcentrifuging for 5 minutes at 4° C., pellets were treated with ice-cold lysis buffer with cell extraction buffer (BioSource, Camarillo, Calif.) containing 0.1% protease inhibitors and 1% phosphatase inhibitors cocktail (Fisher Scientific, Pittsburgh, Pa.) for 10 minutes, then sonicated for 10 seconds three times, and placed on ice. The lysed cells were centrifuged at 10,000×g at 4° C. for 10 minutes to remove the pellets representing the insoluble cell fraction.
The protein concentration was determined with BCA protein dye reagent (Pierce, Fisher Scientific Pittsburgh, Pa.). […]

isolated TrRx = target: T1, isolated TrRx (Homo sapiens, UniProt Q16881); conditions: isolated enzyme; read-out: concentration inhibiting 50% of the enzymatic activity of isolated TrRx; cited from earlier work
T1 sequence (Q16881 151-649 limits assumed): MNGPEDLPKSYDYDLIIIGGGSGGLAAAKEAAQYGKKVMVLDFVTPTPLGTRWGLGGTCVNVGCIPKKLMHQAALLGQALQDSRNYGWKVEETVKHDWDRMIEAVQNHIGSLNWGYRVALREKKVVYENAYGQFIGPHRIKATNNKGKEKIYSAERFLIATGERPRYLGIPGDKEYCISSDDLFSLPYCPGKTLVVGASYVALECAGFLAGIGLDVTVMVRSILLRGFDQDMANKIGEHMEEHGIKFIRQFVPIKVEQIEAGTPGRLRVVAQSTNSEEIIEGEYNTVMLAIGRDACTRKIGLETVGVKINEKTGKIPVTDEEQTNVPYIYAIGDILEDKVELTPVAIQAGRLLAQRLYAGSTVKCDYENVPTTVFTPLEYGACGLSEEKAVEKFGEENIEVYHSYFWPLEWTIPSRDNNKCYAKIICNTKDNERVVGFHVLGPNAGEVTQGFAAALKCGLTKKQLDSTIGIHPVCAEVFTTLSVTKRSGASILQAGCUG

[2] = test system: TrRx in human breast MCF-7 cancer cells; conditions: 4 μM; cited from earlier work
Caki-1 = experiment: Cell viability assay (XTT), Caki-1; assay type: cell-based, human; conditions: 72 h incubation
Description: (§1) Cell Culture: Human renal cell carcinoma lines A498, Caki-1 and UO31, as well as the human prostate carcinoma cell lines DU145 and PC3 were newly obtained for these studies from the American Type Culture Collection (ATCC) (Manassas, Va., USA) and cultured in Roswell Park Memorial Institute (RPMI-1640) (Mediatech Inc., Manassas, Va.) media containing 10% fetal bovine serum (FBS, Life Technologies, Grand Island, N.Y.), 1% Minimum Essential Media (MEM) nonessential amino acids (NEAA, Mediatech) and 1% penicillin-streptomycin (PenStrep, Mediatech). HEK-293T cells were newly purchased from ATCC (Manassas, Va., USA) and maintained in Dulbecco's modified Eagle's medium (DMEM) (Mediatech) supplemented with 10% FBS, 1% NEAA and 1% PenStrep. Normal human renal epithelial cells (RPTC) were purchased from Lifeline Cell Technology (Lifeline Cell Technology, Frederick, Md., USA) and maintained in Lifeline's Renal Life Medium from Lifeline Cell Technology supplemented with 2.4 mM L-glutamine, 5 μg/mL rh insulin, 1.0 nM epinephrine, 10 nM triiodothyronine, 0.1 μg/mL hydrocortisone hemisuccinate, 10 ng/mL rhEGF, 0.50% FBS, 5 μg/mL transferrin PS. All cells were cultured at 37° C. and 5% CO2 in a humidified incubator.
The optical absorbance of each well in a 96-well plate was quantified using BioTek ELx808 absorbance microplate reader (BioTek Winooski, Vt.) set at 450 nm wavelength. The percentage of surviving cells was calculated from the ratio of absorbance of treated to untreated cells.

HEK-293T = experiment: Cell viability assay (XTT), HEK-293T; assay type: cell-based; conditions: 72 h incubation; non-tumorigenic human embryonic kidney cell line
Description: HEK-293T cells were newly purchased from ATCC (Manassas, Va., USA) and maintained in Dulbecco's modified Eagle's medium (DMEM) (Mediatech) supplemented with 10% FBS, 1% NEAA and 1% PenStrep. […] All cells were cultured at 37° C. and 5% CO2 in a humidified incubator.

plasmid pBR322 DNA = experiment: Electrophoresis mobility shift assay; assay type: binding; conditions: metal/DNAbp ratios 0.25-2.0, 37° C., 20 h
Description: Agarose gel electrophoresis assays were performed whereby decreased electrophoretic mobility of both forms were taken as evidence of metal-DNA binding.
Mobility Shift Assay: 10 μL aliquots of pBR322 plasmid DNA (20 μg/mL) in buffer (5 mM Tris/HCl, 50 mM NaClO4, pH=7.39) were incubated with different concentrations of the compounds (2, 3, 4, 5), and titanocene dichloride) (in the range 0.25 and 4.0 metal complex:DNA bp) at 37° C. for 20 h in the dark. Samples of free DNA and cisplatin-DNA were prepared as controls. After the incubation period, the samples were loaded onto the 1% agarose gel. The samples were separated by electrophoresis for 1.5 h at 80 V in Tris-acetate/EDTA buffer (TAE). Afterwards, the gel was stained for 30 min with a solution of GelRed nucleic acid stain.

[3] = Solubility in DMSO/aqueous mixtures; assay type: physicochemical; conditions: at micromolar concentrations
Description: (§2) Both compound 2 and compound 3 were less acidic than titanocene dichloride and were soluble in DMSO/water, DMSO/PBS and DMSO/media (1:99) mixtures at micromolar concentrations. These compounds were unusually stable methyl-containing titanocene moieties that were stable as solids at room temperature, while exposed to air in CDCl3 solution for at least five days.

RPTC = experiment: Cell viability assay (XTT), RPTC; assay type: cell-based; conditions: 72 h incubation; human renal proximal tubular cells
Description: as §1
Cell Viability Assay: Cells were seeded at a concentration of 5000 cells/90 μl per well of either RPMI or DMEM without phenol red and without antibiotics, supplemented with 10% FBS and 2 mM L-glutamine into tissue culture grade 96-well flat bottom microplates (BioLite Microwell Plate, Fisher Scientific, Waltham, Mass., USA) and grown for 24 h at 37° C. in a humidified incubator. Afterwards, the intermediate dilutions of the compounds were added to the wells (10 μL) to obtain a final concentration ranging from 0.1 to 200 μM, and the cells were incubated for 24 h or 72 h. […] The optical absorbance of each well in a 96-well plate was quantified using BioTek ELx808 absorbance microplate reader (BioTek Winooski, Vt.) set at 450 nm wavelength. The percentage of surviving cells was calculated from the ratio of absorbance of treated to untreated cells.

[4] = Stability in solution (DMSO-d6, CDCl3, DMSO/PBS); assay type: physicochemical
Description: as §2

Description for thioredoxin reductase: After 5, 12 or 24 hours of treatment incubation cells were washed three times in PBS, and lysed by douncing using scrapers and sheer force though syringe with a 34 gauge needle in assay buffer (Abeam Thioredoxin Reductase Assay kit, ab83463) added to 1 mM protease inhibitor cocktail (Abeam, ab65621). The lysates were centrifuged at 10,000×g for 15 minutes at 4° C. to isolate insoluble material. The total protein concentrations of soluble lysates were measured using the BCA Protein Assay (Life Technologies). The soluble lysates were incubated for 20 minutes in assay buffer with a proprietary thioredoxin reductase specific inhibitor before adding a specific substrate, DTNB (5, 5′-dithiobis(2-nitrobenzoic) acid), and measuring activity at 1 minute intervals for 30 minutes using the BioTek fluorescence microplate reader (BioTek U.S., Winooski, Vt.) set at =412 nm. Lysates were tested in duplicate. TrxR activity was calculated based on the linear amount of TNB produced per minute per mg of total protein and corrected for background activity from enzymes other than TrxR in the lysates.

| Compound | IC50 (Caki-1) [µM] | IC50 (HEK-293T) [µM] | effect on electrophoretic mobility of plasmid DNA forms (plasmid pBR322 DNA) | IC50 (RPTC) [µM] | also measured |
| --- | --- | --- | --- | --- | --- |
| CC(=O)OC[C@H]1O[C@@H]([S-])[C@H](OC(C)=O)[C@@H](OC(C)=O)[C@@H]1OC(C)=O.CCP(CC)CC.[Au+] [Auranofin] | 3.08 ± 0.13 |  |  |  | inhibition of total TrRx activity in A2780 cells [1]: 30%; expression of MAPKAPK3 (MAPKAPK3): failed to down-regulate; IC50 (isolated TrRx): 0.02 µM; inhibition of thioredoxin reductase activity (thioredoxin reductase; Caki-1 cells, 5 μM, five hour incubation): 74.1%; IC50 (thioredoxin reductase; read-out: IC50 thioredoxin reductase in Caki-1 cells, after twelve hours): 0.61 µM; inhibition of total TrRx activity in MCF-7 cells [2]: 18% |
| N.N.[Cl][Pt][Cl] [Cisplatin, reference compound] | 29 ± 4.11 | 3.27 ± 0.13 | decreased mobility of the CCC form and increased mobility of the OC form |  |  |
| COc1ccc(C[C]2([Ti+2][C]3(Cc4ccc(OC)cc4)C=CC=C3)C=CC=C2)cc1.[Cl-].[Cl-] [Titanocene Y, reference compound] | 29.4 ± 4.18 | > 200 |  |  |  |
| [Cl-].[Cl-].[Ti+4].c1cc[cH-]c1.c1cc[cH-]c1 [[(π-C5H5)2TiCl2], reference compound] | > 200 | > 200 |  |  |  |
| [(η-C5H5)2TiMe(μ-mba)Au(MPPF)] [Compound 3] | 4.11 ± 0.64 | 3.09 ± 0.003 | did not affect the mobility | 3.76 ± 0.21 | solubility in DMSO/water, DMSO/PBS and DMSO/media (1:99) mixtures [3]: soluble; half-life in DMSO-d6 ([4]; DMSO-d6): thirty-two; half-life fold larger than corresponding compound 6 / compound 7 ([4]; DMSO-d6, same solvent): sixty-four; UV-vis spectra over time ([4]; micromolar concentration in 1:99 DMSO/PBS, 23 h, physiological pH): did not change over time |
| [Au(Hmba)(MPPF)] [Precursor 5] | 3.6 ± 0.342 | 3 ± 0.07 | did not affect the mobility | 3.78 ± 0.13 |  |

Source: patent US9315531B2, “Titanocene-gold derivatives comprising thiolato ligands” (Research Foundation of the City University of New York, priority 2014, dated 2016)
